Assay results published in ChEMBL document CHEMBL3865818, “4,5-Diaryl-3H-1,2-dithiole-3-thiones and related compounds as combretastatin A-4/oltipraz hybrids: Synthesis, molecular modelling and evaluation as antiproliferative agents and inhibitors of tubulin” (Eur J Med Chem, 2016).
Activity calls are given as the source filed them. The rule behind the calls is not given here.

Tests used:
[1] = Cell cycle arrest in human KB cells assessed as accumulation at SubG1-phase at 0.05 uM measured after 12 hrs by propidium iodide staining-based flow cytometry (reference value: 1.23%); assay type: functional
[2] = Cell cycle arrest in human KB cells assessed as accumulation at G0/G1-phase at 0.05 uM measured after 12 hrs by propidium iodide staining-based flow cytometry (reference value: 48.26%); assay type: functional
[3] = Cell cycle arrest in human KB cells assessed as accumulation at G0/G1-phase at 0.05 uM measured after 24 hrs by propidium iodide staining-based flow cytometry (reference value: 48.52%); assay type: functional
[4] = Cell cycle arrest in human KB cells assessed as accumulation at G2/M-phase at 0.05 uM measured after 36 hrs by propidium iodide staining-based flow cytometry (reference value: 27.34%); assay type: functional
[5] = Cell cycle arrest in human KB cells assessed as accumulation at SubG1-phase at 0.05 uM measured after 48 hrs by propidium iodide staining-based flow cytometry (reference value: 0.61%); assay type: functional
[6] = Cell cycle arrest in human KB cells assessed as accumulation at SubG1-phase at 0.05 uM measured after 60 hrs by propidium iodide staining-based flow cytometry (reference value: 1.24%); assay type: functional
[7] = Cell cycle arrest in human KB cells assessed as accumulation at G0/G1-phase at 0.1 uM measured after 12 hrs by propidium iodide staining-based flow cytometry (reference value: 48.26%); assay type: functional
[8] = Cell cycle arrest in human KB cells assessed as accumulation at G2/M-phase at 0.1 uM measured after 12 hrs by propidium iodide staining-based flow cytometry (reference value: 30.19%); assay type: functional
[9] = Cell cycle arrest in human KB cells assessed as accumulation at G0/G1-phase at 0.1 uM measured after 24 hrs by propidium iodide staining-based flow cytometry (reference value: 48.52%); assay type: functional
[10] = Cell cycle arrest in human KB cells assessed as accumulation at S-phase at 0.1 uM measured after 24 hrs by propidium iodide staining-based flow cytometry (reference value: 16.96%); assay type: functional
[11] = Cell cycle arrest in human KB cells assessed as accumulation at SubG1-phase at 0.1 uM measured after 36 hrs by propidium iodide staining-based flow cytometry (reference value: 0.63%); assay type: functional
[12] = Cell cycle arrest in human KB cells assessed as accumulation at G0/G1-phase at 0.1 uM measured after 36 hrs by propidium iodide staining-based flow cytometry (reference value: 51.51%); assay type: functional
[13] = Cell cycle arrest in human KB cells assessed as accumulation at S-phase at 0.1 uM measured after 36 hrs by propidium iodide staining-based flow cytometry (reference value: 16.51%); assay type: functional
[14] = Cell cycle arrest in human KB cells assessed as accumulation at G2/M-phase at 0.1 uM measured after 36 hrs by propidium iodide staining-based flow cytometry (reference value: 27.34%); assay type: functional
[15] = Cell cycle arrest in human KB cells assessed as accumulation at G0/G1-phase at 0.1 uM measured after 48 hrs by propidium iodide staining-based flow cytometry (reference value: 58.26%); assay type: functional
[16] = Cell cycle arrest in human KB cells assessed as accumulation at S-phase at 0.1 uM measured after 48 hrs by propidium iodide staining-based flow cytometry (reference value: 13.32%); assay type: functional
[17] = Cell cycle arrest in human KB cells assessed as accumulation at G2/M-phase at 0.1 uM measured after 48 hrs by propidium iodide staining-based flow cytometry (reference value: 23.36%); assay type: functional
[18] = Cell cycle arrest in human KB cells assessed as accumulation at G0/G1-phase at 0.1 uM measured after 60 hrs by propidium iodide staining-based flow cytometry (reference value: 63.85%); assay type: functional
[19] = Cell cycle arrest in human KB cells assessed as accumulation at S-phase at 0.1 uM measured after 60 hrs by propidium iodide staining-based flow cytometry (reference value: 12.66%); assay type: functional
[20] = Cell cycle arrest in human KB cells assessed as accumulation at G2/M-phase at 0.1 uM measured after 60 hrs by propidium iodide staining-based flow cytometry (reference value: 18.9%); assay type: functional
[21] = Cell cycle arrest in human KB cells assessed as accumulation at G0/G1-phase at 0.2 uM measured after 12 hrs by propidium iodide staining-based flow cytometry (reference value: 48.26%); assay type: functional
[22] = Cell cycle arrest in human KB cells assessed as accumulation at G2/M-phase at 0.2 uM measured after 12 hrs by propidium iodide staining-based flow cytometry (reference value: 30.19%); assay type: functional
[23] = Cell cycle arrest in human KB cells assessed as accumulation at SubG1-phase at 0.2 uM measured after 24 hrs by propidium iodide staining-based flow cytometry (reference value: 0.76%); assay type: functional
[24] = Cell cycle arrest in human KB cells assessed as accumulation at G0/G1-phase at 0.2 uM measured after 36 hrs by propidium iodide staining-based flow cytometry (reference value: 51.51%); assay type: functional
[25] = Cell cycle arrest in human KB cells assessed as accumulation at S-phase at 0.2 uM measured after 36 hrs by propidium iodide staining-based flow cytometry (reference value: 16.51%); assay type: functional
[26] = Cell cycle arrest in human KB cells assessed as accumulation at SubG1-phase at 0.2 uM measured after 60 hrs by propidium iodide staining-based flow cytometry (reference value: 1.24%); assay type: functional
[27] = Cell cycle arrest in human KB cells assessed as accumulation at G0/G1-phase measured after 12 hrs by propidium iodide staining-based flow cytometry (reference value: 48.26%); assay type: functional
[28] = Cell cycle arrest in human KB cells assessed as accumulation at G2/M-phase measured after 24 hrs by propidium iodide staining-based flow cytometry (reference value: 28.84%); assay type: functional
[29] = Cell cycle arrest in human KB cells assessed as accumulation at SubG1-phase measured after 36 hrs by propidium iodide staining-based flow cytometry (reference value: 0.63%); assay type: functional
[30] = Cell cycle arrest in human KB cells assessed as accumulation at G0/G1-phase measured after 36 hrs by propidium iodide staining-based flow cytometry (reference value: 51.51%); assay type: functional
[31] = Cell cycle arrest in human KB cells assessed as accumulation at S-phase measured after 36 hrs by propidium iodide staining-based flow cytometry (reference value: 16.51%); assay type: functional
[32] = Cell cycle arrest in human KB cells assessed as accumulation at G0/G1-phase measured after 48 hrs by propidium iodide staining-based flow cytometry (reference value: 58.26%); assay type: functional
[33] = Cell cycle arrest in human KB cells assessed as accumulation at S-phase measured after 48 hrs by propidium iodide staining-based flow cytometry (reference value: 13.32%); assay type: functional
[34] = Cell cycle arrest in human KB cells assessed as accumulation at G0/G1-phase measured after 60 hrs by propidium iodide staining-based flow cytometry (reference value: 63.85%); assay type: functional
KB [35] = test: Inhibition of alpha-tubulin in human KB cells assessed as disruption of microtubule formation at 0.2 uM by DAPI staining-based immunofluorescence assay; assay type: cell-based
KB [36] = test: Inhibition of alpha-tubulin in human KB cells assessed as induction of mitotic catastrophe by measuring multiple micronuclei formation at 0.2 uM by DAPI staining-based immunofluorescence assay; assay type: cell-based

COc1ccc(-c2ssc(=O)c2-c2cc(OC)c(OC)c(OC)c2)cc1N
Activity [1]: 7.09% | Activity [2]: 43% | Activity [3]: 36.7% | Activity [4]: 23% | Activity [5]: 15.8% | Activity [6]: 34.4% | Activity [7]: 8.66% | Activity [8]: 62.8% | Activity [9]: 13.1% | Activity [10]: 25.4% | Activity [11]: 24.3% | Activity [12]: 25.5% | Activity [13]: 14.5% | Activity [14]: 23.7% | Activity [15]: 15.5% | Activity [16]: 15.3% | Activity [17]: 22.6% | Activity [18]: 12.3% | Activity [19]: 9.61% | Activity [20]: 10% | Activity [21]: 1.63% | Activity [22]: 70.2% | Activity [23]: 11.1% | Activity [24]: 7.48% | Activity [25]: 15.9% | Activity [26]: 55.3% | Activity [27]: 8.18% | Activity [28]: 52.1% | Activity [29]: 25.8% | Activity [30]: 14.4% | Activity [31]: 25.4% | Activity [32]: 11.3% | Activity [33]: 12.6% | Activity [34]: 6.81% | Activity (KB [35]): Active | Activity (KB [36]): Active
